# Reference: PMC5844530, “Fosmetpantotenate (RE-024), a phosphopantothenate replacement therapy for pantothenate kinase-associated neurodegeneration: Mechanism of action and efficacy in nonclinical models” (PLoS ONE, 2018)
# “And” between values parts separate entries of the source, which are not always exact repeats. Identical values can stand only once.
# How the values were obtained:
# [1] = system: PanK2 knockdown cells (acetylated tubulin); test: Western blot analysis of acetylated tubulin; format: cell-based, human; conditions: for Tubulin Acetylation (fold of control): mean ± SD of 3 independent experiments, β-actin normalization; for Acetyl tubulin level (fold over vehicle): single experiments Exp1 (n=1), Exp2 (n=3), Exp3 (n=3), listed as RE-024; for Acetyl tubulin (quantification) / Acetyl tubulin Normalized (to actin): 1 µM fosmetpantotenate, replicates 1-2
# Procedure: After incubation, the cells were lysed in RIPA buffer containing 300 mM NaCl, 10 mM Tris HCl pH 8.0, 10 mM KCl, 1 mM ethylenediaminetetraacetic acid (EDTA), 1% Nonidet-P40, 1% sodium deoxycholate, 0.1% SDS, 1 mM phenylmethanesulfonyl fluoride, and protease inhibitor cocktail (11697498001, Roche, Indianapolis, IN), and sonicated on ice with a Branson 450 sonicator through 2 cycles of ten 2s pulses (1 min pause between cycles). Total protein concentration was determined using a Bio-Rad Protein Assay (500–0006, Biorad, Hercules, CA). Cell extracts were subjected to sodium dodecyl sulfate polyacrylamide gel electrophoresis (SDS-PAGE) analysis (4–12%, NP0335BOX, Life Technologies, Great Island, NY) and transferred to a nitrocellulose membrane (10401396, Whatman, Maidstone, UK). Immunostaining was accomplished by overnight incubation with primary antibodies followed by 1 h of incubation with dye-conjugated secondary antibodies according to the manufacturer’s instructions. Protein detection was achieved using an Infrared Odyssey system (LiCor, Lincoln, NE). Densitometric analysis of western blots was performed using ImageJ software; the statistical significance was determined using a t-test. Actin was used as a normalization probe.
# [2] = Metabolic stability in rat liver microsomes; format: in vitro ADME; conditions: pooled liver microsomes
# Procedure: Metabolic stability in blood and liver microsomes: Fosmetpantotenate or its individual diastereomers (5 μM, n = 2, 37°C) were incubated in mouse, rat, cynomolgus monkey, and human whole blood. Samples (50 μL) were taken at 0, 5, 15, 30, and 60 min. Incubations of fosmetpantotenate or its individual diastereomers (1 μM, n = 2, 37°C) in pooled liver microsomes (0.25 mg protein/mL in 0.1 M phosphate buffer pH 7.4) were initiated with the addition of nicotinamide adenine dinucleotide phosphate (NADPH; 1 mM). Aliquots (100 μL) were obtained at 0, 5, 10, 20, and 40 min and added to 150 μL of 0.1% formic acid in acetonitrile-containing carbamazepine (0.5 μM) as an analytical internal standard, centrifuged, and the supernatants analyzed by LC-MS/MS.
# Bioanalysis for determinations of analyte stability: Samples were analyzed using a benchtop tandem quadrupole detector (TQD) mass spectrometer (Waters Ltd, Centennial Park, Hertfordshire). […] Suitable retention and peak shape with separation of the 2 diastereomers were obtained. The chromatography column was a Phenomenex-Kinetex XB C18 (2.10 x 50 mm; 2.6 μm), with a 0.7 mL/min flow rate and a 2 μL injection volume. […]
# The percent of compound remaining was determined from the MRM area response in each sample relative to that in the T = 0 samples (normalized for internal standard). […]
structure (smiles),measurement,setting,value
COC(=O)CCNC(=O)[C@H](O)C(C)(C)COP(=O)(N[C@@H](C)C(=O)OC)Oc1ccccc1 (mixture of isomers) [Fosmetpantotenate],change in acetyl tubulin,"[1]; 1 μM TID, day 1",statistically significant decrease
same,increase in acetyl tubulin,"[1]; 1 μM TID, day 5",~ 1.6 fold
same,Tubulin Acetylation (fold of control),[1]; 25 μM,2.32 ± 0.64 fold of control
same,Acetyl tubulin level (fold over vehicle),[1]; 25 µM,1.86 fold over vehicle and 2.77 ± 0.13 fold over vehicle
same,Tubulin Acetylation (fold of control),[1]; 50 μM,3.68 ± 1.13 fold of control
same,Acetyl tubulin level (fold over vehicle),[1]; 50 µM,3.02 fold over vehicle and 3.03 ± 0.05 fold over vehicle and 4.99 ± 0.03 fold over vehicle
same,Tubulin Acetylation (fold of control),[1]; 200 μM,5.12 ± 2.57 fold of control
same,Acetyl tubulin (quantification),"[1]; Experiment 1, DAY 1",5352.933 and 4967.69
same,Acetyl tubulin Normalized (to actin),"[1]; Experiment 1, DAY 1",1.0
same,Acetyl tubulin (quantification),"[1]; Experiment 1, DAY 3",5869.761 and 6720.347
same,Acetyl tubulin Normalized (to actin),"[1]; Experiment 1, DAY 3",1.2 and 1.5
same,Acetyl tubulin (quantification),"[1]; Experiment 1, DAY 5",9323.933 and 10851.882
same,Acetyl tubulin Normalized (to actin),"[1]; Experiment 1, DAY 5",2.0 and 2.1
same,Acetyl tubulin (quantification),"[1]; Experiment 2, DAY 1",2820.548 and 2422.355
same,Acetyl tubulin Normalized (to actin),"[1]; Experiment 2, DAY 1",1.1 and 1.0
same,Acetyl tubulin (quantification),"[1]; Experiment 2, DAY 3",5646.447 and 4155.426
same,Acetyl tubulin Normalized (to actin),"[1]; Experiment 2, DAY 3",2.6
same,Acetyl tubulin (quantification),"[1]; Experiment 2, DAY 5",4976.426 and 5163.962
same,Acetyl tubulin Normalized (to actin),"[1]; Experiment 2, DAY 5",2.2 and 1.9
same,half-life at 1 μM,"[2]; pH 7.4, 1 μM, NADPH",8 min
same,microsomal CLint at 1 μM,"[2]; pH 7.4, read-out: intrinsic clearance",335 µL/min/mg
